{"source": "ChEMBL document CHEMBL1130732", "about": "“Homologated aza analogs of arabinose as antimycobacterial agents” (1998)", "key": {"[1]": {"system": "Mycobacterium tuberculosis", "assay": "Minimum inhibitory concentration against Mycobacterium tuberculosis H37Ra; value ranges from 32-128 ug/mL", "assay_type": "functional"}, "Mycobacterium avium [2]": {"system": "Mycobacterium avium", "assay": "Anti-MAC activity against Mycobacterium avium macrophage; cytotoxic to macrophages", "assay_type": "functional, organism-based"}, "[3]": {"system": "Mycobacterium tuberculosis", "assay": "Minimum bactericidal concentration against Mycobacterium tuberculosis H37Ra", "assay_type": "functional"}, "[4]": {"system": "Mycobacterium tuberculosis", "assay": "Minimum inhibitory concentration against Mycobacterium tuberculosis H37Ra", "assay_type": "functional"}, "[5]": {"system": "Mycobacterium tuberculosis", "assay": "Percent inhibition of compound against Mycobacterium tuberculosis H37Ra at 12.5 ug/mL concentration in BACTEC assay", "assay_type": "functional"}, "Mycobacterium avium [6]": {"system": "Mycobacterium avium", "assay": "Anti-MAC activity against Mycobacterium avium macrophage; I means inactive in macrophages", "assay_type": "functional, organism-based"}, "[7]": {"system": "Mycobacterium tuberculosis", "assay": "Minimum inhibitory concentration against Mycobacterium tuberculosis H37Ra; partial inhibition at 128 ug/mL", "assay_type": "functional"}, "Mycobacterium avium [8]": {"system": "Mycobacterium avium", "assay": "Anti-MAC activity against Mycobacterium avium macrophage was determined", "assay_type": "functional"}, "[9]": {"system": "Mycobacterium tuberculosis", "assay": "Minimum inhibitory concentration against Mycobacterium tuberculosis H37Ra; value ranges from […] ug/mL", "assay_type": "functional"}, "[10]": {"system": "Mycobacterium tuberculosis", "assay": "Minimum inhibitory concentration against Mycobacterium tuberculosis H37Ra; […]", "assay_type": "functional"}, "[11]": {"system": "Mycobacterium tuberculosis", "assay": "Minimum bactericidal concentration against Mycobacterium tuberculosis H37Ra; value ranges from 64->128 ug/mL", "assay_type": "functional"}, "[12]": {"system": "Mycobacterium tuberculosis", "assay": "Minimum inhibitory concentration against Mycobacterium tuberculosis H37Ra; value ranges from 16-32 ug/mL", "assay_type": "functional"}, "[13]": {"system": "Mycobacterium tuberculosis", "assay": "Minimum inhibitory concentration against Mycobacterium tuberculosis H37Ra; value ranges from 16-64 ug/mL", "assay_type": "functional"}, "[14]": {"system": "Mycobacterium tuberculosis", "assay": "Minimum inhibitory concentration against Mycobacterium tuberculosis H37Ra; value ranges from >12.8-<=128 ug/mL", "assay_type": "functional"}}, "note": "Active and inactive are the calls of the source. The calls are words filed in the database; no cut-off is given here.", "data": [{"compound": "CCCCCCCCCCCCS(=O)(=O)CC1NC(CO)C(O)C1O", "note": "(stereo not given)", "values": [{"measurement": "MIC", "setting": "[1]", "value": 32, "unit": "µg/mL"}, {"measurement": "Activity", "setting": "Mycobacterium avium [2]", "value": "Cytotoxic"}, {"measurement": "MBC", "setting": "[3]", "value": "≥ 128", "unit": "µg/mL"}]}, {"compound": "OCC1NC(CSCc2ccccc2)C(O)C1O", "note": "(stereo not given)", "values": [{"measurement": "MIC", "setting": "[4]", "value": "> 128", "unit": "µg/mL"}]}, {"compound": "O=S(=O)(CC1NC(CO)C(O)C1O)c1ccccc1", "note": "(stereo not given)", "values": [{"measurement": "MIC", "setting": "[4]", "value": "> 128", "unit": "µg/mL"}, {"measurement": "inhibition at 12.5 µg/mL", "setting": "[5]", "value": 6, "unit": "%"}, {"measurement": "Activity", "setting": "Mycobacterium avium [6]", "value": "inactive"}]}, {"compound": "OCC1NC(CSc2ccc3ccccc3c2)C(O)C1O", "note": "(stereo not given)", "values": [{"measurement": "MIC", "setting": "[7]", "value": "> 128", "unit": "µg/mL"}, {"measurement": "inhibition at 12.5 µg/mL", "setting": "[5]", "value": 18, "unit": "%"}]}, {"compound": "OC[C@H]1O[C@@H](CSc2ccccc2)[C@H](O)[C@@H]1O", "values": [{"measurement": "MIC", "setting": "[4]", "value": "> 128", "unit": "µg/mL"}, {"measurement": "Activity", "setting": "Mycobacterium avium [8]", "value": ">64", "unit": "µg/mL"}]}, {"compound": "CC(C)=CCC/C(C)=C\\CSCC1NC(CO)C(O)C1O", "note": "(stereo not given)", "values": [{"measurement": "MIC", "setting": "[9]", "value": 64, "unit": "µg/mL"}, {"measurement": "Activity", "setting": "Mycobacterium avium [2]", "value": "Cytotoxic"}]}, {"compound": "CCCCCCCCCCSCC1NC(CO)C(O)C1O", "note": "(stereo not given)", "values": [{"measurement": "MIC", "setting": "[1]", "value": 32, "unit": "µg/mL"}, {"measurement": "MBC", "setting": "[3]", "value": "≥ 128", "unit": "µg/mL"}]}, {"compound": "CCCCCCCCCCCC[S+]([O-])CC1NC(CO)C(O)C1O", "note": "(stereo not given)", "values": [{"measurement": "MIC", "setting": "[10]", "value": 32, "unit": "µg/mL"}, {"measurement": "MBC", "setting": "[3]", "value": "≥ 128", "unit": "µg/mL"}]}, {"compound": "COc1ccc(SCC2NC(CO)C(O)C2O)cc1", "note": "(stereo not given)", "values": [{"measurement": "MIC", "setting": "[4]", "value": "> 128", "unit": "µg/mL"}]}, {"compound": "OCC1NC(CSc2ccncc2)C(O)C1O", "note": "(stereo not given)", "values": [{"measurement": "MIC", "setting": "[4]", "value": "> 128", "unit": "µg/mL"}, {"measurement": "inhibition at 12.5 µg/mL", "setting": "[5]", "value": 6, "unit": "%"}]}, {"compound": "CCCCCCCCCCCCSCC1NC(CO)C(O)C1O", "note": "(stereo not given)", "values": [{"measurement": "Activity", "setting": "Mycobacterium avium [2]", "value": "Cytotoxic"}, {"measurement": "MBC", "setting": "[11]", "value": 64, "unit": "µg/mL"}, {"measurement": "MIC", "setting": "[12]", "value": 16, "unit": "µg/mL"}]}, {"compound": "OCC1NC(CSc2ccccc2)C(O)C1O", "note": "(stereo not given)", "values": [{"measurement": "MIC", "setting": "[4]", "value": "> 128", "unit": "µg/mL"}, {"measurement": "inhibition at 12.5 µg/mL", "setting": "[5]", "value": 0, "unit": "%"}, {"measurement": "Activity", "setting": "Mycobacterium avium [8]", "value": 4, "unit": "µg/mL"}]}, {"compound": "[O-][S+](CC1NC(CO)C(O)C1O)c1ccccc1", "note": "(stereo not given)", "values": [{"measurement": "MIC", "setting": "[4]", "value": "> 128", "unit": "µg/mL"}, {"measurement": "inhibition at 12.5 µg/mL", "setting": "[5]", "value": 18, "unit": "%"}, {"measurement": "Activity", "setting": "Mycobacterium avium [6]", "value": "inactive"}]}, {"compound": "CCCCCCCCCCCCCCCCSCC1NC(CO)C(O)C1O", "note": "(stereo not given)", "values": [{"measurement": "MIC", "setting": "[13]", "value": 16, "unit": "µg/mL"}, {"measurement": "MBC", "setting": "[11]", "value": 64, "unit": "µg/mL"}]}, {"compound": "N#Cc1ccc(SCC2NC(CO)C(O)C2O)cc1", "note": "(stereo not given)", "values": [{"measurement": "MIC", "setting": "[4]", "value": "> 128", "unit": "µg/mL"}, {"measurement": "inhibition at 12.5 µg/mL", "setting": "[5]", "value": 5, "unit": "%"}]}, {"compound": "CCCCCCCCCCCCS(=O)(=O)C[C@H]1NC(CO)C(O)C1O", "note": "(stereo not given in full)", "values": [{"measurement": "MIC", "setting": "[14]", "value": "> 12.8", "unit": "µg/mL"}]}, {"compound": "COc1ccccc1SCC1NC(CO)C(O)C1O", "note": "(stereo not given)", "values": [{"measurement": "MIC", "setting": "[4]", "value": "> 128", "unit": "µg/mL"}]}]}
